Here are results for 1 compound from US9815826B2, “Crystal of azole benzene derivative” (TEIJIN PHARMA LIMITED, priority 2014, dated 2017).

In test [1] the test system is level of uric acid in the blood. The experiment in a line: Prolonged hypouricemic effect (normal rats), 24 hours after administration. The class given is in vivo, Sprague-Dawley male rats. The conditions noted are these: oral. The procedure:
2-[4-(2,2-dimethylpropoxy)-3-(1H-1,2,3,4-tetrazol-1-yl)phenyl]-4-methyl-1,3-thiazole-5-carboxylic acid was administered to Sprague-Dawley male rats in the same manner as in Reference Example 4. After the blood was collected from the tail vein 24 hours after administration, the plasma was separated. The level of uric acid in the blood was measured by an uricase method using an absorption spectrometer and a uric acid determination kit (L type Wako UA F: Wako Pure Chemical Industries, Ltd.). The percentage of hypouricemic effect was determined by the following expression: Percentage of hypouricemic effect (%)=(Level of uric acid of the control animal−Level of uric acid of the test compound-administered animal)×100/Level of uric acid of the control animal.

For test [2], the system named is level of uric acid in the plasma. The experiment in a line: Hypouricemic effect (oxonic acid-induced hyperuricemic beagle dogs). The test is classed as in vivo, beagle dog. The conditions noted are these: oral, 10 mg/kg, 8 hours after administration. The procedure: The hypouricemic effect of 2-[4-(2,2-dimethylpropoxy)-3-(1H-1,2,3,4-tetrazol-1-yl)phenyl]-4-methyl-1,3-thiazole-5-carboxylic acid in oxonic acid-induced hyperuricmic beagle dog was confirmed. A test compound suspended in a 0.5% methylcellulose solution was administered to beagle dog (Kitayama labes) by oral gavage administration. Potassium oxonate (50 mg/kg) was subcutaneously administrated before and 4 hours after compound administration. After the blood was collected from the cephalic vein at 8 hours after administration, the plasma was separated. The level of uric acid in the plasma sample was measured by LC-MS/MS method and the percentage of hypouricemic effect was determined by the following expression: Percentage of hypouricemic effect (%)=(Level of uric acid of the control animal−Level of uric acid of the test compound-administered animal)×100/Level of uric acid of the control animal.

Test [3] addresses T1, oxidase-type xanthine oxidoreductase (XO activity) (Rattus norvegicus, UniProt P22985).
T1 construct: frozen tissues were homogenized with potassium phosphate buffer; from tissue; host or cells: rat liver, kidney, vessel homogenate supernatants and plasma (ex vivo after oral dosing)
The experiment in a line: Prolonged inhibitory effect on tissue and plasma XO activity (pterin-based assay after oral dosing). The test is classed as in vivo, Sprague-Dawley male rats. Particulars: about 27 hours after administration. The text has this:
(§1) For “xanthine oxidase” in the present invention, as far as this example, oxidative reaction catalyzing activities which are brought by oxidase-type xanthine oxidoreductase solely and by both oxidase-type and dehydrogenase-type xanthine oxidoreductase are distinguished. The former is “XO activity” and the latter is “XOR activity”. In “tissue XO activity”, “plasma XO activity”, “tissue XOR activity inhibition”, “tissue XOR activity inhibition” and the like, “XO activity” and “XOR activity” have the same meanings as defined above. The tissue includes liver, kidney and vessel. In addition, percentage of XO activity inhibition and that of […] in same sample are thought to be similar, according to the results below.
(§2) The inhibitory effect of tissue XO activity, tissue XOR activity and plasma XO activity was confirmed for 2-[4-(2,2-dimethylpropoxy)-3-(1H-1,2,3,4-tetrazol-1-yl)phenyl]-4-methyl-1,3-thiazole-5-carboxylic acid. A test compound suspended in a 0.5% methylcellulose solution was forcedly administered to 7 to 9 week-old Sprague-Dawley male rats (Japan Charles River Co.) by oral gavage administration using a feeding needle. The blood was collected from the abdominal vein and tissue was collected at 24 or 27 hours after administration. Plasma sample was prepared by centrifugation.
(§3) The tissue XO activity, the tissue XOR activity and the plasma XO activity were measured by the pterin-based assay which utilizes the reaction that pterin is oxidized by each type of xanthine oxidoreductase to produce fluorescent isoxanthopterin. In brief, frozen tissues were homogenized with potassium phosphate buffer, pH 7.4, containing 1 mM ethylenediaminetetraacetic acid (EDTA) and protease inhibitors to prepare tissue concentration as follow (liver: 25 mg/mL, kidney: 25 mg/mL, vessel: 30 mg/mL). Then the homogenates were centrifuged 12,000 rpm for 15 min at 4° C. When measured XO activity, the supernatant of tissue and plasma were respectively co-incubated with 50 μM pterin solution at 37° C. When measured XOR activity, the supernatant of tissue homogenate was co-incubated with 50 μM pterin and 50 μM methylene blue solution at 37° C. As a control, oxidase-type xanthine oxidoreductase (from buttermilk, manufactured by Calbiochem Novabiochem Corp.) was also incubated with pterin solution in the same manner. XO activity and XOR activity of the samples were determined from fluorescence intensity which normalized by the intensity value of control and protein concentration.
(§4) The percentage of XO activity inhibition and XOR activity inhibition were determined by the following expression: Percentage of XO or XOR activity inhibition (%)=(XO or XOR activity of the control animal−XO or XOR activity of the test compound-administered animal)×100/XO or XOR activity of the control animal.

Test [4] relates to level of uric acid in the blood. Briefly: Hypouricemic effect (normal rats), 2 hours after administration. The class given is in vivo, Sprague-Dawley male rats. Particulars: oral. The procedure:
The hypouricemic effect was confirmed for 2-[4-(2,2-dimethylpropoxy)-3-(1H-1,2,3,4-tetrazol-1-yl)phenyl]-4-methyl-1,3-thiazole-5-carboxylic acid. A test compound suspended in a 0.5% methylcellulose solution was forcibly administered to 8 to 9 week-old Sprague-Dawley male rats (Japan Charles River Co.) by oral gavage administration using a feeding needle. After the blood was collected from the tail vein at 2 hours after administration, the plasma was separated. The level of uric acid in the blood sample was measured by uricase method using an absorption spectrometer as well as a uric acid determination kit (L type Wako UA F: Wako Pure Chemical Industries, Ltd.). The percentage of hypouricemic effect was determined by the following expression: Percentage of hypouricemic effect (%)=(Level of uric acid of the control animal−Level of uric acid of the test compound-administered animal)×100/Level of uric acid of the control animal.

Test [5] concerns the target T2, oxidase-type xanthine oxidoreductase (from buttermilk) (Bos taurus, UniProt P80457).
T2 construct: purchased Calbiochem Novabiochem Corp; host or cells: natural source: buttermilk
Briefly: Measurement of xanthine oxidase inhibitory activity. The class given is biochemical. The conditions noted are these: xanthine substrate, absorbance 290 nm. The procedure: After dissolving 2-[4-(2,2-dimethylpropoxy)-3-(1H-1,2,3,4-tetrazol-1-yl)phenyl]-4-methyl-1,3-thiazole-5-carboxylic acid in DMSO (produced by Sigma Corporation) so that the concentration is 20 mM, the solution was used by adjusting the concentration to a desired value for the purpose during use.
The evaluation of the xanthine oxidase inhibitory activity of 2-[4-(2,2-dimethylpropoxy)-3-(1H-1,2,3,4-tetrazol-1-yl)phenyl]-4-methyl-1,3-thiazole-5-carboxylic acid was conducted by the method described in the refference (Method Enzymatic Analysis, 1, 521-522, 1974) with partial modification. This evaluation was carried out by measuring oxidase-type xanthine oxidoreductase acrivity. […] After mixing the plate, absorbance at 290 nm was measured by a microplate reader SPECTRA MAX Plus 384 (manufactured by Molecular Devices, LLC). […] Immediately after mixing, the change of absorbance at 290 nm was measured for 5 minutes. The enzyme activity of DMSO solution without test compound was used as 100% control, and the inhibitory rate of the test compound was calculated. Fifty percent inhibitory concentration of the test compound on the oxidase-type xanthine oxidoreductase activity was calculated by fitting to the dose-response curve.

The target in test [6] is T3, oxidase-type and dehydrogenase-type xanthine oxidoreductase (XOR activity) (Rattus norvegicus, UniProt P22985).
T3 construct: frozen tissues were homogenized with potassium phosphate buffer; from tissue; host or cells: rat liver, kidney, vessel homogenate supernatants and plasma (ex vivo after oral dosing)
T3 sequence (P22985 whole entry): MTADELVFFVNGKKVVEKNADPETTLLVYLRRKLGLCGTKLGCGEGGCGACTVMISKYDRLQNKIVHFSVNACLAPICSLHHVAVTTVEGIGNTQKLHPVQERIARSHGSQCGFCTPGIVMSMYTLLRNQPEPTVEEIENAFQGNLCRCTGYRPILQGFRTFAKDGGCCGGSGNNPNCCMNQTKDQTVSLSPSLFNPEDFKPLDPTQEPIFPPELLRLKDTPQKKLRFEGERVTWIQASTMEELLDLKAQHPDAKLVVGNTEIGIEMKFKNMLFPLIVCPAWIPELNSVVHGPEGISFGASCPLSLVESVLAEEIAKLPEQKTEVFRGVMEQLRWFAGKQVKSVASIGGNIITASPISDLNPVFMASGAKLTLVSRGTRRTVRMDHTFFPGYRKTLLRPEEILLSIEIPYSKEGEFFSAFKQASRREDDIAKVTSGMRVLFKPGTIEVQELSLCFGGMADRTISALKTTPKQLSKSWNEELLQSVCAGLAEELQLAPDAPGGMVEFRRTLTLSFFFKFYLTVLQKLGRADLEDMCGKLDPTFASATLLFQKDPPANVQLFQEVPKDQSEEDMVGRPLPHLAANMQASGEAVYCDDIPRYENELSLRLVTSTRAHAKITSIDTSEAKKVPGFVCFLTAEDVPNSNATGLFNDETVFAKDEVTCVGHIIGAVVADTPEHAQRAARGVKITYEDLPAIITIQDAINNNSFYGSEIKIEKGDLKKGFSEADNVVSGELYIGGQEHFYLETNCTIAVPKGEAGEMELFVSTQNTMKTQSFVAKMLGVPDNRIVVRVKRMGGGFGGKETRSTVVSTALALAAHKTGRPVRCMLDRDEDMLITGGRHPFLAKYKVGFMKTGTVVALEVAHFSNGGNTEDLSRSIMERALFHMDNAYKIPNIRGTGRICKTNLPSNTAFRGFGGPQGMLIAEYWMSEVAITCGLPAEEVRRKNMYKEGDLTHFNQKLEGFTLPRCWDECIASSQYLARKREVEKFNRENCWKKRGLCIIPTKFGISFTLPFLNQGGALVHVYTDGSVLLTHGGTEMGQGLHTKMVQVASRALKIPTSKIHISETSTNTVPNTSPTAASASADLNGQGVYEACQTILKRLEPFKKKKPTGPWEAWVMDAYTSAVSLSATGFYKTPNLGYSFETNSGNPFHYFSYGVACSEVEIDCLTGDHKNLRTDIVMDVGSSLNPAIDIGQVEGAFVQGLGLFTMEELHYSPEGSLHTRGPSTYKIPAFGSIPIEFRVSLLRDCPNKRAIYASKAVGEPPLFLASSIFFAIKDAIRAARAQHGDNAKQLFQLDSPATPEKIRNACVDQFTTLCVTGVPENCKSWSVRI
Briefly: Prolonged inhibitory effect on tissue XOR activity (pterin-based assay with methylene blue after oral dosing). The class given is in vivo, Sprague-Dawley male rats. The conditions noted are these: for XOR activity inhibition compared to the control animal: 27 hours after drug administration; for XOR inhibitory activity, % of inhibition (vs. vehicle): 24 hours after administration.
Source text: as §1, §2, §3, §4

The structures appear in SMILES notation. Where only a bound is given, the exact number is not on record here.

T1 sequence (P22985 whole entry): as above
T2 sequence (P80457 whole entry): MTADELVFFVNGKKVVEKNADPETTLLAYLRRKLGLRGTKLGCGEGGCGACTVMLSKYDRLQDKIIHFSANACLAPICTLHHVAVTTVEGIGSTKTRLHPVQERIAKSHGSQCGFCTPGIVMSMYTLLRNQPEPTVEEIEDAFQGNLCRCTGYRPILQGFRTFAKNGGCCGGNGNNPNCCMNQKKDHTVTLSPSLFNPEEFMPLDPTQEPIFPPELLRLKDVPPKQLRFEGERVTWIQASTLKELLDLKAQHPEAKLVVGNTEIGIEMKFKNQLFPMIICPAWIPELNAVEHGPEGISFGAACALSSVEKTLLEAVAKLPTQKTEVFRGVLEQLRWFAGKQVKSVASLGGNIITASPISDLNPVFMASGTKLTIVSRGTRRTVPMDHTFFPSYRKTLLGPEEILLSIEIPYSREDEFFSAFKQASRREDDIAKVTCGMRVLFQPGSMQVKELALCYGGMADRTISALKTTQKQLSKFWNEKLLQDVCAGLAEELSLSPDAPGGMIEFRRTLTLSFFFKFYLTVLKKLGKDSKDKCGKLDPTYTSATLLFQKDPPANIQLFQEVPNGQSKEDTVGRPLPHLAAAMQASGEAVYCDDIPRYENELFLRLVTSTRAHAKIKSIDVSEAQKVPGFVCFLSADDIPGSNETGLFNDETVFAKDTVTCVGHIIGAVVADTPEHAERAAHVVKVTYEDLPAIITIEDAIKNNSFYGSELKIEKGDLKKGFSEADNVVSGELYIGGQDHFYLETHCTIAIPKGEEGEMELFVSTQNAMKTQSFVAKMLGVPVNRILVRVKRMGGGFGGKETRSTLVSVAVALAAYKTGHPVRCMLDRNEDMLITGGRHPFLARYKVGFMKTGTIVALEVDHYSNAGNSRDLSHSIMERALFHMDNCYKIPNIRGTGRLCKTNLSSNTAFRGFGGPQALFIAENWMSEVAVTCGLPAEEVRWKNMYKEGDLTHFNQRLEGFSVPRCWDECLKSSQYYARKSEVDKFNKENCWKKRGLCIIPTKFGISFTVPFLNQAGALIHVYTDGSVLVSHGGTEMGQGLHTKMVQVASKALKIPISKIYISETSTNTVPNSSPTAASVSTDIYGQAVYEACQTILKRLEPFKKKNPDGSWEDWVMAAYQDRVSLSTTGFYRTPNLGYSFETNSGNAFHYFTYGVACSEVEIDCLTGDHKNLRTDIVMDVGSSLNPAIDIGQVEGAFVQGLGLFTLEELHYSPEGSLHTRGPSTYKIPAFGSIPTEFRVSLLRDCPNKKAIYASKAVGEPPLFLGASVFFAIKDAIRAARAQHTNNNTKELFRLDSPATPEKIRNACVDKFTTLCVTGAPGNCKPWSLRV

For the compound `Cc1nc(-c2ccc(OCC(C)(C)C)c(-n3cnnn3)c2)sc1C(=O)O` [2-[4-(2,2-dimethylpropoxy)-3-(1H-1,2,3,4-tetrazol-1-yl)phenyl]-4-methyl-1,3-thiazole-5-carboxylic acid], the “Percentage of hypouricemic effect” value in test [1] (3 mg/kg) is listed as not below 40%; in test [1] (10 mg/kg), not below 50%; in test [2], not below 80%; in test [4] (1 mg/kg), not below 50%; in test [4] (10 mg/kg), not below 50%. Moreover, the “XO inhibitory activity, % of inhibition (vs. vehicle)” value is on record as “≧60%” in test [3] (rat kidney, 1 mg/kg oral); “≧70%” in test [3] (rat kidney, 10 mg/kg oral, 10 mg/kg); not below 70% in test [3] (rat kidney, 10 mg/kg oral, listed as present compound, 10 mg/kg); “≧80%” in test [3] (rat liver, 1 mg/kg oral); “≧25%” in test [3] (rat plasma, 1 mg/kg oral, 1 mg/kg); not below 25% in test [3] (rat plasma, 1 mg/kg oral, listed as present compound, 1 mg/kg). For the same compound, the “XO inhibitory activity, % of inhibition (vs. vehicle)” value was “≧40%” in test [3] (rat plasma, 10 mg/kg oral, 10 mg/kg) and not below 40% in test [3] (rat plasma, 10 mg/kg oral, listed as present compound, 10 mg/kg). In addition, the concentration for half-maximal inhibition (IC50) (in general, the concentration needed to halve the response being measured) in test [5] fell in the range of 1 to 5 nM. In addition, the “XOR activity inhibition compared to the control animal” value in test [6] (rat kidney, 1 mg/kg oral) is not below 60%; in test [6] (rat liver, 1 mg/kg oral), not below 80%. The “XOR inhibitory activity, % of inhibition (vs. vehicle)” value in test [6] (rat liver, 1 mg/kg oral, 1 mg/kg) is listed as “≧80%”; in test [6] (rat liver, 1 mg/kg oral, listed as present compound, 1 mg/kg), not below 80%; in test [6] (rat vessel, 1 mg/kg oral, 1 mg/kg) it was “≧30%”; in test [6] (rat vessel, 1 mg/kg oral, listed as present compound, 1 mg/kg) it was not below 30%; in test [6] (rat vessel, 10 mg/kg oral, 10 mg/kg) it was “≧50%”; in test [6] (rat vessel, 10 mg/kg oral, listed as present compound, 10 mg/kg) it was not below 50%.
